Source: patent US20240025910A1, “BRAIN-MIGRATING TUMOR THERAPEUTIC AGENT CONTAINING FUSED PYRIMIDINE COMPOUND AS ACTIVE INGREDIENT” (TAIHO PHARMACEUTICAL CO., LTD., priority 2020, published 2024)

Experiments:
[1] = Evaluation of brain penetration property (Kp, Kp,uu) after single oral dose; type: in vivo; details: BALB/cAJcl-nu/nu; for Kp at 1 h: mouse, ratio of compound concentrations in brain/plasma, mice, 1 hour after administration, Kp of 0.1 or more judged brain penetrable; for Kp uu at 1 h: ratio of unbound compound concentrations in brain/plasma, using mouse plasma and brain protein unbound ratios of Test Example 1, mice, 0.3 or more judged excellent
Method: Compounds shown in Tables 1 to 4 were added to mouse plasma at a final concentration of 1 μmol/L. The resultant compound-added mouse plasma was added to the donor side of an equilibrium dialysis device (HTDialysis) in which an equilibrium dialysis membrane was set. An equal amount of PBS was added to the receiver side of the device, and after incubation in a 10% CO2 incubator for 6 hours, the compounds on the donor side and the receiver side were detected with the LC-MS/MS. The unbound ratio of each compound to plasma protein was calculated from the ratio of the compound peak area of the receiver side to that of the donor side.
The unbound ratio of each compound to brain protein was calculated in the same manner as above except that: the compound was added to a mouse brain homogenate instead of the mouse plasma; and a dilution ratio was taken into consideration in the calculation of the unbound ratio. In this case, the mouse brain homogenate was obtained by adding a 3-fold amount of PBS to the mouse brain, and then homogenizing the mixture through use of an ultrasonic homogenizer.
The compounds shown in Tables 1 to 4 were dissolved or suspended in 0.5% HPMC, 0.1N hydrochloric acid, and orally administered in a single dose to BALB/cAJcl-nu/nu mice (CLEA Japan, Inc.) untreated, or subcutaneously implanted with TT cells, or subcutaneously implanted with the BaF3/KIF5B-RET_RFP cell line. […] Thus, blood and brain samples were obtained. The obtained blood sample was centrifuged to obtain a plasma sample. A 3-fold amount of water was added to the obtained brain sample, and then the mixture was homogenized through use of an ultrasonic homogenizer to obtain a brain homogenate.
Compound concentrations in the obtained plasma and in the brain homogenate were measured with the LC-MS/MS, and the compound concentration in the brain homogenate was multiplied by a factor of 4 to calculate a compound concentration in the brain. A Kp value was calculated from the ratio of the compound concentrations in the brain/plasma. Unbound compound concentrations in the plasma and in the brain were calculated from the plasma protein unbound ratio and brain protein unbound ratio of each compound determined in Test Example 1, and a Kp,uu value was calculated from the ratio of the unbound compound concentrations in the brain/plasma. A brain penetration property was evaluated on the basis of the calculated Kp value and Kp,uu value (Tables 1 to 4). Specifically, a compound showing a Kp value of 0.1 or more was judged to have a brain penetration property, and a compound showing a Kp,uu value of 0.3 or more was judged to have an excellent brain penetration property (Varadharajan, S., et al. (2015) J Pharm Sci 104, 1197-1206). In Table 4, “N/A” in the column “Kp,uu value” means that the value was unmeasured.

[2] = tested on: NIH/3T3_CCDC6-RET cells implanted in the brain; test: Evaluation of drug efficacy in brain tumor implantation model; type: in vivo, nude mice (BALB/cAJcl-nu/nu); details: oral 50 mg/kg/day, twice a day for 16 consecutive days from Day 5; NIH/3T3_CCDC6-RET brain implant, nude mice
Method: Antitumor evaluation was performed in models with tumors implanted in the brain.
The growth inhibitory effect was confirmed by using NIH/3T3 cells (NIH/3T3_CCDC6-RET cells) in which luciferase and CCDC6-RET fusion protein were forced to be expressed for gene transfer. Six-week-old male nude mice (BALB/cAJcl-nu/nu, CLEA Japan, Inc.) were fixed on a brain stereotaxic instrument, and 2.5×10^4 cells per mice were implanted at a site 0.5 mm anteriorly from the bregma, 2 to 2.2 mm to the right and 3.5 mm deep. The day of implantation was defined as Day 0, luciferin (150 mg/kg) was administered intraperitoneally on Day 4, and intensity of luminescence (photons/sec) was measured using an IVIS Imaging System (Lumina II, PerkinElmer).
From the next day (Day 5), compounds were administered twice a day for 16 consecutive days. Each compound was suspended in 0.5% HPMC/0.1N hydrochloric acid and administered orally at 50 mg/kg/day. To confirm tumor growth, intensity of luminescence was measured at intervals of 3 or 4 days by the method described above.
However, since a humane endpoint due to tumor growth was applied to the drug non-administration group (control group), statistical evaluation was performed by Dunnett's test using the measurement value on Day 14.

Row | SMILES | Kp at 1 h [1] | Kp uu at 1 h [1] | inhibitory effect on growth of tumors implanted in the brain (intensity of luminescence) [2]
1 | COCc1ccc(NC(=O)c2c(C#Cc3cn(C)nc3C)n(C3(C)CC3)c3ncnc(N)c23)cc1 [Example 1, 4-amino-6-[2-(1,3-dimethyl-1H-pyrazol-4-yl)ethynyl]-N-[4-(methoxymethyl)phenyl]-7-(1-methylcyclopropyl)-7H-pyrrolo[2,3-d]pyrimidine-5-carboxamide] | 0.425 | 0.425 | –
2 | COCc1ccc(NC(=O)c2c(C#CCN3CCOCC3)n(C3(C)CC3)c3ncnc(N)c23)cc1 [Example 2, 4-amino-N-[4-(methoxymethyl)phenyl]-7-(1-methylcyclopropyl)-6-(3-morpholinoprop-1-yn-1-yl)-7H-pyrrolo[2,3-d]pyrimidine-5-carboxamide] | 1.71 | 1.8 | inhibitory effect on the growth of the implanted tumors
3 | COCc1ccc(NC(=O)c2c(C#CC3CCN(C)CC3)n(C3(C)CC3)c3ncnc(N)c23)cc1 [Example 3, 4-amino-N-[4-(methoxymethyl)phenyl]-7-(1-methylcyclopropyl)-6-[(1-methylpiperidin-4-yl)ethynyl]-7H-pyrrolo[2,3-d]pyrimidine-5-carboxamide] | 0.772 | 0.22 | –
4 | COCc1ccc(NC(=O)c2c(C#Cc3cnn(C)c3)n(C3(C)CC3)c3ncnc(N)c23)cc1 [Example 4, 4-amino-N-[4-(methoxymethyl)phenyl]-6-((1-methyl-1H-pyrazol-4-yl)ethynyl)-7-(1-methylcyclopropyl)-7H-pyrrolo[2,3-d]pyrimidine-5-carboxamide] | 1.44 | 1.2 | –
5 | CC#Cc1c(C(=O)Nc2ccc(COC)cc2)c2c(N)ncnc2n1C1(C)CC1 [Example 5, 4-amino-N-[4-(methoxymethyl)phenyl]-7-(1-methylcyclopropyl)-6-(prop-1-yn-1-yl)-7H-pyrrolo[2,3-d]pyrimidine-5-carboxamide] | 1.56 | 0.681 | –
6 | COCc1ccc(NC(=O)c2c(C#CCN(C)C)n(C3(C)CC3)c3ncnc(N)c23)cc1 [Example 6, 4-amino-6-[3-(dimethylamino)prop-1-yn-1-yl]-N-[4-(methoxymethyl)phenyl]-7-(1-methylcyclopropyl)-7H-pyrrolo[2,3-d]pyrimidine-5-carboxamide] | 0.969 | 0.922 | –
7 | COCc1ccc(NC(=O)c2c(OC[C@H]3CCCO3)n(C3(C)CC3)c3ncnc(N)c23)cc1 [Example 7, (R)-4-amino-N-[4-(methoxymethyl)phenyl]-7-(1-methylcyclopropyl)-6-((tetrahydrofuran-2-yl)methoxy)-7H-pyrrolo[2,3-d]pyrimidine-5-carboxamide] | 1.63 | 0.608 | –
8 | COCc1ccc(NC(=O)c2cn(C3(C)CC3)c3ncnc(N)c23)cc1 [Example 8, 4-amino-N-[4-(methoxymethyl)phenyl]-7-(1-methylcyclopropyl)-7H-pyrrolo[2,3-d]pyrimidine-5-carboxamide] | 0.175 | 0.1 | –
9 | CCOc1c(C(=O)Nc2ccc(COC)cc2)c2c(N)ncnc2n1C1(C)CC1 [Example 9, 4-amino-6-ethoxy-N-[4-(methoxymethyl)phenyl]-7-(1-methylcyclopropyl)-7H-pyrrolo[2,3-d]pyrimidine-5-carboxamide] | 2.12 | 0.914 | –
10 | COCc1ccc(NC(=O)c2c(C#Cc3cncn3C)n(C3(C)CC3)c3ncnc(N)c23)cc1 [Example 10, 4-amino-N-(4-(methoxymethyl)phenyl)-6-((1-methyl-1H-imidazol-5-yl)ethynyl)-7-(1-methylcyclopropyl)-7H-pyrrolo[2,3-d]pyrimidine-5-carboxamide] | 0.143 | 0.056 | –
11 | COCc1ccc(NC(=O)c2c(C#CCN3CCCCC3)n(C3(C)CC3)c3ncnc(N)c23)cc1 [Example 11, 4-amino-N-[4-(methoxymethyl)phenyl]-7-(1-methylcyclopropyl)-6-(3-(piperidin-1-yl)prop-1-yn-1-yl)-7H-pyrrolo[2,3-d]pyrimidine-5-carboxamide] | 1.36 | – | –
12 | COCc1ccc(NC(=O)c2c(C#CCN3CCCC3)n(C3(C)CC3)c3ncnc(N)c23)cc1 [Example 12, 4-amino-N-[4-(methoxymethyl)phenyl]-7-(1-methylcyclopropyl)-6-(3-(pyrrolidin-1-yl)prop-1-yn-1-yl)-7H-pyrrolo[2,3-d]pyrimidine-5-carboxamide] | 1.02 | 1.45 | –
13 | COCc1ccc(NC(=O)c2c(C#CC3CCOCC3)n(C3(C)CC3)c3ncnc(N)c23)cc1 [Example 13, 4-amino-N-[4-(methoxymethyl)phenyl]-7-(1-methylcyclopropyl)-6-((tetrahydro-2H-pyran-4-yl)ethynyl)-7H-pyrrolo[2,3-d]pyrimidine-5-carboxamide] | 2.08 | 0.891 | –
14 | COCc1ccc(NC(=O)c2c(C#CCC(C)(C)O)n(C3(C)CC3)c3ncnc(N)c23)cc1 [Example 14, 4-amino-6-(4-hydroxy-4-methylpent-1-yn-1-yl)-N-[4-(methoxymethyl)phenyl]-7-(1-methylcyclopropyl)-7H-pyrrolo[2,3-d]pyrimidine-5-carboxamide] | 0.352 | 0.242 | –
15 | COCc1ccc(NC(=O)c2c(C#CCC3CCOCC3)n(C3(C)CC3)c3ncnc(N)c23)cc1 [Example 15, 4-amino-N-[4-(methoxymethyl)phenyl]-7-(1-methylcyclopropyl)-6-[3-(tetrahydro-2H-pyran-4-yl)prop-1-yn-1-yl]-7H-pyrrolo[2,3-d]pyrimidine-5-carboxamide] | 0.74 | 0.37 | –
16 | COCc1ccc(NC(=O)c2c(C#Cc3cccnc3)n(C3(C)CC3)c3ncnc(N)c23)cc1 [Example 16, 4-amino-N-[4-(methoxymethyl)phenyl]-7-(1-methylcyclopropyl)-6-(pyridin-3-ylethynyl)-7H-pyrrolo[2,3-d]pyrimidine-5-carboxamide] | 1.09 | 0.653 | –
17 | COCc1ccc(NC(=O)c2c(C#Cc3ccc(N)nc3)n(C3(C)CC3)c3ncnc(N)c23)cc1 [Example 17, 4-amino-6-[(6-aminopyridin-3-yl)ethynyl]-N-[4-(methoxymethyl)phenyl]-7-(1-methylcyclopropyl)-7H-pyrrolo[2,3-d]pyrimidine-5-carboxamide] | 0.129 | 0.052 | –
18 | COCc1ccc(NC(=O)c2c(C#CCN3CCSCC3)n(C3(C)CC3)c3ncnc(N)c23)cc1 [Example 18, 4-amino-N-[4-(methoxymethyl)phenyl]-7-(1-methylcyclopropyl)-6-(3-thiomorpholinoprop-1-yn-1-yl)-7H-pyrrolo[2,3-d]pyrimidine-5-carboxamide] | 0.685 | 0.443 | –
19 | Cc1cc(NC(=O)c2cn(C(C)(C)C)c3ncnc(N)c23)n[nH]1 [compound 1, reference compound] | 0.056 | – | –
20 | Cc1cc(NC(=O)c2cn(C3(C)CC3)c3ncnc(N)c23)n[nH]1 [compound 2, reference compound] | 0.022 | 0.005 | –
21 | Cc1cc(NC(=O)c2c(C#Cc3cnn(C)c3)n(C3(C)CC3)c3ncnc(N)c23)[nH]n1 [compound 3, reference compound] | 0.076 | – | –
